Results as given in patent US20250345391A1, “COMPOSITIONS AND METHODS FOR THE TREATMENT OF SEPSIS” (Children's Hospital Medical Center, priority 2022, published 2025).

What was measured:
[1] = system: Myeloperoxidase (MPO) activity in lung, kidneys and liver tissue; test: Myeloperoxidase activity (neutrophil infiltration) in organs after CLP sepsis; format: in vivo, Male C57BL/6 mice; conditions: 6 h after CLP; colivelin 100 or 200 μg/kg i.p. at 1 h after CLP; vs vehicle; dose-independent
Description: The investigation conformed to the National Institutes of Health Guide for the Care and Use of Laboratory Animals (Eighth Edition, 2011) and was approved by the Institutional Animal Care and Use Committee of the Cincinnati Children's Hospital Medical Center. Male C57BL/6 mice were obtained from Charles River Laboratories International, Inc. (Wilmington, MA). Mice were used at 3-5 months of age to mimic the equivalent for human ranges from 20-25 years (29). Male mice only were chosen for the experimentation to avoid interference from female hormonal fluctuations in sepsis responses during the estrous cycle. Mice were housed in pathogen-free conditions under a 10-h light/14-h dark cycle with free access to food and water. Mice were anesthetized with 2.0% isoflurane in 50% oxygen and polymicrobial sepsis was induced by cecal ligation and puncture (CLP) (30). After a midline laparotomy, the cecum was exteriorized, ligated and punctured twice with a 23-G needle. The cecum was then returned into the peritoneal cavity and the abdominal incision was closed. After the procedure, mice were randomly assigned to three treatment groups: a vehicle-treated group received distilled water (200 μl/mouse) intraperitoneally (i.p.); a 100 μg colivelin-treated group received the colivelin at 100 μg/kg i.p., and a 200 μg colivelin-treated group received the colivelin at 200 μg/kg i.p. at 1 h after CLP. The intraperitoneal injection was chosen to allow for a rapid uptake and bioavailability of the peptide. All groups of mice also received fluid resuscitation (35 ml/kg normal saline solution subcutaneously) immediately after, at 3 h and 12 h after the CLP procedure. […] Myeloperoxidase (MPO) activity was measured as an indicator of neutrophil infiltration in lung, kidneys and liver tissue. […] The rate of change in absorbance was measured by spectrophotometry at 650 nm. MPO activity was defined as the quantity of enzyme degrading 1 μmol of hydrogen peroxide/min at 37° C. and expressed in units per 100 mg weight of tissue.

[2] = system: syndecan-1; test: Plasma syndecan-1 (glycocalyx damage) after CLP sepsis, ELISA; format: in vivo, Male C57BL/6 mice; conditions: 6 h after CLP; colivelin 100 or 200 μg/kg i.p. at 1 h after CLP; vs vehicle; dose-independent
Description: The investigation conformed to the National Institutes of Health Guide for the Care and Use of Laboratory Animals (Eighth Edition, 2011) and was approved by the Institutional Animal Care and Use Committee of the Cincinnati Children's Hospital Medical Center. Male C57BL/6 mice were obtained from Charles River Laboratories International, Inc. (Wilmington, MA). Mice were used at 3-5 months of age to mimic the equivalent for human ranges from 20-25 years (29). Male mice only were chosen for the experimentation to avoid interference from female hormonal fluctuations in sepsis responses during the estrous cycle. Mice were housed in pathogen-free conditions under a 10-h light/14-h dark cycle with free access to food and water. […] Plasma levels of tumor necrosis factor-α (TNFα), interleukin (IL)-1β, IL-6, IL-10, keratinocytes-derived chemokine (KC), and macrophage inflammatory proteins (MIP-1α) were used as indices of the systemic inflammatory response and were evaluated by a commercially available multiplex array system (Milliplex, Millipore Corporation, Billerica, MA). Plasma levels of endoglin, intercellular adhesion molecule-1 (ICAM-1), P-selectin, proprotein convertase subtilisin/kexin type 9 (PCSK9), and angiopoietin-2 (Ang 2) were used as indices of endothelial injury and were evaluated by a commercially available multiplex array system (R&D Systems, Minneapolis, MN). […]

Colivelin (SALLRSIPAPAGASRLLLLTGEIDLP)
significantly decreased: MPO activity in kidneys [1] | MPO activity in liver [1] | MPO activity in lungs [1] | Levels of plasma syndecan-1 [2]
